The values below come from US8278301B2, “2-alkylbenzoxazole carboxamides as 5HT3 modulators” (Albany Molecular Research, Inc., priority 2006, dated 2012).

The target in experiment [1] is T1, human 5-HT3 receptor (Homo sapiens, UniProt P46098).
T1 sequence (P46098 24-478): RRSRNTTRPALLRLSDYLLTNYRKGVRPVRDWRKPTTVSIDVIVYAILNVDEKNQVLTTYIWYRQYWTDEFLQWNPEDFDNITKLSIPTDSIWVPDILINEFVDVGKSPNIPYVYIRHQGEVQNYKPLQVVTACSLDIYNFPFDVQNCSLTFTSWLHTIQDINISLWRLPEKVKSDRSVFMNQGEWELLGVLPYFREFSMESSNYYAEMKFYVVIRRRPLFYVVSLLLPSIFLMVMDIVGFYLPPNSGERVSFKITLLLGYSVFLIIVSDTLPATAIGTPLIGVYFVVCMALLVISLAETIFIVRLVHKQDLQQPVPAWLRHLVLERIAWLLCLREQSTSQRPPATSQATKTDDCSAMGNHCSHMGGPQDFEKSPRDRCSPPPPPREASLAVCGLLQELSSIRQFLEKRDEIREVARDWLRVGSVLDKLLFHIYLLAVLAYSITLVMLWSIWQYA
Nature of the experiment: Compound affinity for the human 5-HT3 receptor (Assay B), SPA radioligand binding with [9-methyl-3H]BRL-43694. Also on record: purchased Perkin Elmer. How it is done: Compound Affinity for the Human 5-HT3 Receptor (Assay B)
The relative affinity of the various compounds for the human 5-HT3 receptor was measured in a radioligand binding assay, using a scintillation proximity assay (SPA) format. Test compounds were dissolved to 10 mM in 100% DMSO, then serially diluted at 10× assay concentrations in 100% DMSO in 96-well polypropylene plates and further diluted to 4× assay concentrations with the assay buffer. Samples were incubated in 50 mM Tris-HCl, pH 7.5, 3 mM MgCl2, 1 mM EDTA and 10% DMSO with 10 nM [9-methyl-3H]BRL-43694 (Perkin Elmer), 3 μg of human 5-HT3 receptor membranes (Perkin Elmer) and 0.5 mg/mL SPA beads (WGA PVT, Amersham Biosciences) in a final volume of 0.2 mL. Binding reactions were set up in wells of PicoPlates-96 (Perkin Elmer) by adding consecutively 50 μL of each competing compound or buffer, SPA beads, the radioligand and 5-HT3 receptor membranes. After 60-min incubation at room temperature on a Nutator mixer, plates were centrifuged for 15 min at 1,500 rpm, followed by incubation in the dark for 30 min. Radioactivity was counted in the TopCount microplate counter (Perkin Elmer) for 5 min. Total binding control contained buffer only; nonspecific binding was determined in the presence of 30 μM MDL-72222. Specific binding was determined by subtracting nonspecific binding from total binding. All experiments were performed in duplicate using ten concentrations of a competing ligand, with ondansetron included as a control in every run. IC50 values were determined from specific binding data using XLfit4.1 curve fitting software from IDBS Ltd. Ki values were then calculated from the Cheng-Prusoff equation.
(§1) In the table below, the assay in which the data were obtained is shown (as A, B. C, or D) along with the data.

Experiment [2] concerns the target T2, mouse 5-HT3 receptor (Mus musculus, UniProt P23979).
T2 construct: host or cells: mouse neuroblastoma cells (N1E-155 as printed)
T2 sequence (P23979 24-489): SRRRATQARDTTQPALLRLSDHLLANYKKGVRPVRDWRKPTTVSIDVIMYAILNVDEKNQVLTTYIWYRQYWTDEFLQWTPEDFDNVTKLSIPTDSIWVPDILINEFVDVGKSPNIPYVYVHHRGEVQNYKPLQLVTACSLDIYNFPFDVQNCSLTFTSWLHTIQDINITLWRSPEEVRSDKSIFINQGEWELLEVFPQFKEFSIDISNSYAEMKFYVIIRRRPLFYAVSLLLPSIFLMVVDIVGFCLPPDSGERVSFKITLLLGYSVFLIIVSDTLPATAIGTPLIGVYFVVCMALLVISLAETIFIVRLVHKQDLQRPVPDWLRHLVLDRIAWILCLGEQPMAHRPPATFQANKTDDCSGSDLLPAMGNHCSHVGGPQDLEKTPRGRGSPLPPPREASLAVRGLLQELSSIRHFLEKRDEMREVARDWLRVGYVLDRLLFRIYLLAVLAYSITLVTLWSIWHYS
Briefly: Compound affinity for the mouse 5-HT3 receptor (Assay C), [3H]-GR65630 radioligand binding, Novoscreen. The note with it: read-out: Mouse % Inhibition @ 100 nM. How it is done: Compound Affinity for the Mouse 5-HT3Receptor (Assay C)
Compounds were tested by Novoscreen Biosciences Corporation, 7170 Standard Drive, Hanover, Md. in a radioligand binding assay using the mouse 5-HT3 receptor derived from mouse neuroblastoma cells and [^3H]-GR65630 (ligand). The non-specific binding determinant was MDL 72222. Compounds were tested at a single concentration of 100 nM in duplicate. Percent inhibition is reported. In order to evaluate the relative affinity of the various compounds for the 5-HT3 receptor, N1E-155 cell lines were developed to express the target protein. For binding, these cells were homogenized, centrifuged and washed with buffer (20 mM HEPES, 150 mM NaCl, pH 7.4) then suspended in 0.5 mL of buffer and [^3H]-GR65630 added at a concentration of 3.5×10^−10 M. An initial single concentration of 10^−7 M of the test compound was then added. Incubation was carried out at room temperature for 60 minutes at 25° C. then was terminated by rapid removal of the incubation medium. Radioactivity was assessed using liquid scintillation spectrophotometry after exposure to scintillation cocktail for at least three hours. […] Ki values were then calculated from the Cheng-Prusoff equation. In all of the above binding studies the non-specific determinant was MDL-72222 (1.0 μM).
as §1

The mark [3] stands for this setting: Assay C, single concentration 100 nM, in duplicate, [3H]-GR65630.
Setting [4] is: Assay B, SPA, [9-methyl-3H]BRL-43694, Cheng-Prusoff, read-out: Human 5HT3 Ki.

Structures are written as SMILES. pKi: −log10 of the molar value. Where a name gives a salt, the structure may show the parent alone. Read-outs that look alike come from different tables or passages of the source.

Regarding `C[C@H]1OC(=O)N(C)C1c1nc2c(C(=O)NC3CC4CCCC(C3)N4C)cccc2o1` (stereo partly drawn) [Example 42, Endo-N-(9-methyl-9-azabicyclo[3.3.1]nonan-3-yl)-2-((4S,5R/4R,5S)-3,5-dimethyl-2-oxo-oxazolidin-4-yl)benzoxazole-4-carboxamide], in experiment [1], the pKi (in general, the negative decadic logarithm of the Ki, by convention in mol/L) was 7.60. Still for that read-out and setting: with `CN1C2COCC1CC(NC(=O)c1cccc3oc(C4CCCC4)nc13)C2` (stereo not drawn) [Example 32, N-(9-methyl-3-oxa-9-azabicyclo[3.3.1]non-7-yl)-2-(cyclopentyl-4-yl)benzoxazole-4-carboxamide Hydrochloride] the figure was 7.09. On the same count and under the same terms, the result for `O=C(NC1CC2CCCC(C1)N2)c1cccc2oc(C3CC3)nc12` (stereo not drawn) [Example 36, N-(9-Azabicyclo[3.3.1]non-3-yl)-2-cyclopropylbenzoxazole-4-carboxamide Hydrochloride] reads 8.20. As for `CN1C2CCCC1CC(NC(=O)c1cccc3oc(C4CCCCC4)nc13)C2` (stereo not drawn) [Example 15, Endo-N-(9-Methyl-9-azabicyclo[3.3.1]non-3-yl)-2-cyclohexylbenzoxazole-4-carboxamide Hydrochloride], in experiment [2] (setting [3]), the inhibition – broadly, the drop in the measured response relative to a control, in per cent – at 0.1 µM was found to be 105%.

On to `O=C(N[C@@H]1CN2CCC1CC2)c1cccc2oc(C3CCCCC3)nc12` [Example 16, (S)—N-(1-Azabicyclo[2.2.2]oct-3-yl)-2-cyclohexylbenzoxazole-4-carboxamide Hydrochloride], for which the inhibition at 0.1 µM in experiment [2] (setting [3]) amounted to 94.1%. Take `CC(=O)N1CCC(c2nc3c(C(=O)N[C@@H]4CN5CCC4CC5)cccc3o2)CC1` [Example 31, (S)—N-(1-Azabicyclo[2.2.2]oct-3-yl)-2-(1-acetylpiperidin-4-yl)benzoxazole-4-carboxamide Hydrochloride]: in experiment [1] (setting [4]), the pKi was 6.45. Regarding `O=C(N[C@@H]1CN2CCC1CC2)c1cccc2oc(C3CCOCC3)nc12` [Example 25, (S)—N-(1-Azabicyclo[2.2.2]oct-3-yl)-2-(tetrahydro-2H-pyran-4-yl)benzoxazole-4-carboxamide Hydrochloride], in experiment [1] (setting [4]), the pKi is 6.90. Turning to `CCN(CC)Cc1nc2c(C(=O)N[C@H]3C[C@H]4CCC[C@@H](C3)N4C)cccc2o1` [Example 41, Endo-N-(9-Methyl-9-azabicyclo[3.3.1]nonan-3-yl)-2-(diethylaminomethyl)benzoxazole-4-carboxamide Hydrochloride], the pKi in experiment [1] is 7.82. For `O=C(N[C@@H]1CN2CCC1CC2)c1cccc2oc(C3CCCC3)nc12` [Example 6, (S)—N-(1-Azabicyclo[2.2.2]oct-3-yl)-2-cyclopentylbenzoxazole-4-carboxamide Hydrochloride], in experiment [2] (setting [3]), the inhibition at 0.1 µM was 90.2%.

Turning to `CCN1C2CCCC1CC(NC(=O)c1cccc3oc(C4CC4)nc13)C2` (stereo not drawn) [Example 21, N-(9-Ethyl-9-azabicyclo[3.3.1]non-3-yl)-2-cyclopropylbenzoxazole-4-carboxamide Hydrochloride], the inhibition at 0.1 µM in experiment [2] (setting [3]) came to 34.9%.

Regarding `CN1[C@@H]2CCC[C@H]1C[C@@H](NC(=O)c1cccc3oc(C45CCN(CC4)CC5)nc13)C2` [Example 26, Endo-N-(9-Methyl-9-azabicyclo[3.3.1]nonan-3-yl)-2-(quinuclidin-4-yl)benzoxazole-4-carboxamide Dihydrochloride], the negative-log Ki (pKi) in experiment [1] (setting [4]) was 6.76. The same measure, in the same setting: with `CCN(CC)Cc1nc2c(C(=O)NC3CN4CCC3CC4)cccc2o1` [Example 40, (S)—N-(Azabicylco[2.2.2]oct-3-yl)-2-(diethylaminomethyl)benzoxazole-4-carboxamide Hydrochloride] the figure was 6.89.

Consider `CN1CCCCC1c1nc2c(C(=O)N[C@H]3C[C@H]4CCC[C@@H](C3)N4C)cccc2o1` (mixture of isomers) [Example 33, Endo-N-(9-Methyl-9-azabicyclo[3.3.1]nonan-3-yl)-2-(1-methylpiperidin-2-yl)benzoxazole-4-carboxamide Hydrochloride], for which, in experiment [1], the pKi is 7.67. On to `CC1CC1c1nc2c(C(=O)NC3CN4CCC3CC4)cccc2o1` (racemic) [Example 14, (S)—N-(1-Azabicyclo[2.2.2]oct-3-yl)-2-(2-methylcyclopropyl)benzoxazole-4-carboxamide Hydrochloride], for which the inhibition at 0.1 µM in experiment [2] worked out at 93.6%. For `CN1[C@@H]2CCC[C@H]1C[C@@H](NC(=O)c1cccc3nc(C(C)(C)C)oc13)C2` [Example 37, Endo-N-(9-methyl-9-azabicyclo[3.3.1]non-3-yl)-2-tert-butyl benzoxazole-7-carboxamide Hydrochloride], the pKi in experiment [1] (setting [4]) was 6.78. `CN1CCC(c2nc3c(C(=O)N[C@@H]4CN5CCC4CC5)cccc3o2)CC1` [Example 30, (S)—N-(1-Azabicyclo[2.2.2]oct-3-yl)-2-(1-methylpiperidin-4-yl)benzoxazole-4-carboxamide Dihydrochloride Dihydrochloride]: in experiment [1], the pKi is 7.08. Consider `CN1[C@@H]2CCC[C@H]1C[C@@H](NC(=O)c1cccc3oc(C4CCNCC4)nc13)C2` [Example 27, Endo-N-(9-methyl-9-azabicyclo[3.3.1]non-3-yl)-2-(piperidin-4-yl)benzoxazole-4-carboxamide Dihydrochloride], for which the negative-log Ki (pKi) in experiment [1] is 7.39. In the case of `O=C(N[C@@H]1CN2CCC1CC2)c1cccc2oc(CN3CCOCC3)nc12` [Example 38, (S)—N-(Azabicyclo[2.2.2]oct-3-yl)-2-(morpholinomethyl)benzoxazole-4-carboxamide Hydrochloride], in experiment [1] (Assay B, 10 μM), the inhibition at 10 µM stood at 74%. With `CN1[C@@H]2CCC[C@H]1C[C@@H](NC(=O)c1cccc3oc(CN4CCOCC4)nc13)C2` [Example 39, Endo-N-(9-Methyl-9-azabicyclo[3.3.1]nonan-3-yl)-2-(morpholinomethyl)benzoxazole-4-carboxamide Hydrochloride], the pKi in experiment [1] is 7.11. Still for that read-out and setting: with `CN1CCC(c2nc3c(C(=O)N[C@H]4C[C@H]5CCC[C@@H](C4)N5C)cccc3o2)CC1` [Example 29, Endo-N-(9-methyl-9-azabicyclo[3.3.1]non-3-yl)-2-(1-methylpiperidin-4-yl)benzoxazole-4-carboxamide Dihydrochloride] the figure was 7.55. In the case of `O=C(N[C@@H]1CN2CCC1CC2)c1cccc2oc(C3CCNCC3)nc12` [Example 28, (S)—N-(1-Azabicyclo[2.2.2]oct-3-yl)-2-(piperidin-4-yl)benzoxazole-4-carboxamide Dihydrochloride], the pKi in experiment [1] (setting [4]) was 6.95.
